# “And” between values parts separate entries of the source, which are not always exact repeats. Identical values can stand only once. Numbered stars: 1 amine (or outer) side, 2 acyl side, 3 side chain; on linkers, the order of the positions; unused ones are H or OH. Square brackets hold non-standard residues; d marks the D form. * marks the point of attachment. Dab(5-FAM) = O=C(NCC[C@H](N[*:1])C(=O)[*:2])c1ccc2c(c1)C(=O)OC21c2ccc(O)cc2Oc2cc(O)ccc21; EDANS = O=S(=O)(O)c1cccc2c(NCCN*)cccc12; DABCYL = DABCYL quencher; GABA = NCCCC(=O)O
# Key:
# pronase = details: 23° C., 30 min, 100 tM substrate
# Experimental: The biotinylated fluoreceinated peptide #15 was reconstituted to a concentration of 10 mM in DMSO to serve as a stock solution. […] The 10 mM stock was further diluted to a 1 mM working stock. The final in-reaction concentration of substrate was 100 tM, which was chosen based on visual/fluorescent appearance of the diluted sample.
# Three reactions were run, a negative control which contained no protease, a tube which contained 10 tg/mL, and a tube that contained 100 tg/mL.
# All three tubes were shaken at room temperature (23° C.) for 30 min, then 30 μL of 500 mM EDTA was added to quench the metalloproteases. Then the reactions were immediately added to 10 kDa cut-off centrifuge filters to physically remove all proteases. This step required two separate filters per sample as the protein content was high enough to “clog” the filter after about half of the volume as filtered. The unfiltered volume was removed from the “clogged” filter and placed into a fresh filter.
# Six handee spin columns were prepared in advance by loading 200 tL of the streptavidin agarose suspension (approximately 1:1 bead:buffer) and then centrifuging to remove the buffer. Upon completion of the protease removal step, the filtered volume was placed in a handee spin column loaded with ˜100 tL of a high-capacity streptavidin agarose and the volumes were well mixed by pipetting action. […]
# MMP-2 = target: T1, MMP-2 (Homo sapiens, UniProt P08253); details: at 37° C., pH 7.64; cited from earlier work
# T1 sequence (P08253 110-660): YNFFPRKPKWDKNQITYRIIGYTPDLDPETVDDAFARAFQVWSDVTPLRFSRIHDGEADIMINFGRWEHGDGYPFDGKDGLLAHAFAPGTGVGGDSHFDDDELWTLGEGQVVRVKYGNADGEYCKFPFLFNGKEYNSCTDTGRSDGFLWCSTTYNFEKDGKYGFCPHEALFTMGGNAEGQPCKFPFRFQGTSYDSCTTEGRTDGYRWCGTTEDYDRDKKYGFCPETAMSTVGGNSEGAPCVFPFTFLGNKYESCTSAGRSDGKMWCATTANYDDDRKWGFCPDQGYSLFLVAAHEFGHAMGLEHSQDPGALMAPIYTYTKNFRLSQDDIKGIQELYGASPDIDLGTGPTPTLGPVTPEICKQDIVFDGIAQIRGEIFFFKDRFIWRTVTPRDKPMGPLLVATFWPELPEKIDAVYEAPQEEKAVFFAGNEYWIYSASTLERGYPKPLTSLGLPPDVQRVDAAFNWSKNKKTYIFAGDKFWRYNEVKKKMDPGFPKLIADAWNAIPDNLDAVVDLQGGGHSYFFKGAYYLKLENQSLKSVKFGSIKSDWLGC
# MMP-9 [1] = details: at 37° C., pH 7.64; cited from earlier work
# Target sequence in this assay (P14780 94-707, species assumed): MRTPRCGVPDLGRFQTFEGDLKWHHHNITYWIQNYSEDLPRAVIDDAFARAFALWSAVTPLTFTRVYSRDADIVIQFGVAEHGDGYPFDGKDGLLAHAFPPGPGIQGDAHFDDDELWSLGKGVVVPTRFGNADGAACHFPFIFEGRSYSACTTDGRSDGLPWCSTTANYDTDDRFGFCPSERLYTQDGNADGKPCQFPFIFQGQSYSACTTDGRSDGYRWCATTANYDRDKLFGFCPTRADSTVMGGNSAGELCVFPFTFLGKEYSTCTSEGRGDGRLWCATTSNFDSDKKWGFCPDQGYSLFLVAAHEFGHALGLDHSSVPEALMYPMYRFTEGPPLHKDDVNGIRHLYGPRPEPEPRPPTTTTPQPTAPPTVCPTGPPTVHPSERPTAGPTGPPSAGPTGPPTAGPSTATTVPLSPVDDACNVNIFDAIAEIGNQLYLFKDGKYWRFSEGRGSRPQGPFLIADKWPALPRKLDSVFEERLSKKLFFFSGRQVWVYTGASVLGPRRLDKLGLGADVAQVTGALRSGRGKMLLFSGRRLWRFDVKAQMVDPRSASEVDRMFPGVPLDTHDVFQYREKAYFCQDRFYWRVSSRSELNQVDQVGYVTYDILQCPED
# MMP-3 = MMP-3 (Homo sapiens, UniProt P08254); details: at 37° C., pH 7.64; cited from earlier work
# Sequence of MMP-3 (P08254 100-477, species assumed): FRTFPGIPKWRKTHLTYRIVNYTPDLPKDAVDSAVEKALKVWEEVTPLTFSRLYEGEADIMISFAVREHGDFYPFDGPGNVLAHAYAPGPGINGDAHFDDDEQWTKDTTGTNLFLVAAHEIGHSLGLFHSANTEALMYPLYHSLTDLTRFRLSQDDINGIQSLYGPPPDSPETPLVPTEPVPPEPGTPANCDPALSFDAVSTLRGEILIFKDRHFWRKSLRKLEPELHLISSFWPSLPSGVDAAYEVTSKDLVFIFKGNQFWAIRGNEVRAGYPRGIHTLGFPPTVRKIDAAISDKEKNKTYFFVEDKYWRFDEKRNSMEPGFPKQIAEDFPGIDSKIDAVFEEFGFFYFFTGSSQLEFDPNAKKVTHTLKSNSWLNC
# MMP-1 = target: T2, MMP-1 (Homo sapiens, UniProt P03956); details: at 37° C., pH 7.64; cited from earlier work
# T2 sequence (P03956 100-469): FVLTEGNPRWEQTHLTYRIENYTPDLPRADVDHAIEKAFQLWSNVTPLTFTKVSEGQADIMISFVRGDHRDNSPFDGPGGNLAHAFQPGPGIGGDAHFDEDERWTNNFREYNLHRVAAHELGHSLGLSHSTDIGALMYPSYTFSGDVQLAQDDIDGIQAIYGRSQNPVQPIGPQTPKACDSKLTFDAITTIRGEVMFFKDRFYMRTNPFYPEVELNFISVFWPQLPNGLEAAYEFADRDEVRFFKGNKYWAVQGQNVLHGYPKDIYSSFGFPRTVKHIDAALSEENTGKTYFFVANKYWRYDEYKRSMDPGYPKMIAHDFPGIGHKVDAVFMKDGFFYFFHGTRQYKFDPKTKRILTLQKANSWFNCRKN
# substrate TNO211 [2] = experiment: Study #1: time-to-detection of protease activity, cleavage of substrate TNO211 by fluorescence; format: biochemical; details: protease concentrations ≦100 ng/ml
# Experimental: 1. Prepare a suitable standard curve diluted in enzyme buffer. Typically, a maximum of 50 ng/ml final protease concentration in the assay is used. Keep on ice until use.
# 2. Prepare the substrate solution by diluting the Stock Reconstituted Substrate (in DMSO) to 5.56 uM in the desired Assay Buffer (EDTA-free or EDTA-containing) to produce 90 ul of total EDTA-free or EDTA-containing Assay Buffer per well.
# 3. Pipette 90 ul substrate solution into each well to be assayed.
# 4. Take an initial fluorescence reading. To minimize interference due to the fluorescence of endogenous proteins in the samples, we routinely use excitation/emission wavelengths of 355/535 nm, respectively.
# 5. Pipette 10 ul standards, samples, or Enzyme Buffer (BLANK) into each well of the 96-well fluorescence assay plate.
# 6. Measure the change in fluorescence continuously until the standard range of interest is sufficiently resolved. Protect from light at RT or 37° C. between measurements.
# 7. Determine the best-fit curve relating the Change in Fluorescence (AF) vs.
# [Protease]. […]
# One hundred, 10, 1, and 0.1 ng of pronase, MMP-2, MMP-9, and clostridial collagenase were assayed in a total reaction volume of 100 ul for cleavage of substrate TNO211 as detected by fluorescence. The reactions were monitored for approximately one hour after the addition of the proteases.
# substrate TNO211 [3] = experiment: Study #3: protease detection sensitivity, visual detection under UV; format: biochemical; details: within 10 minutes; from 17% and 28% of pronase activity
# Experimental: To investigate the visual detection limits of pronase, standard curves (1000-0 ng) of the protease were reacted in 50, 100, and 200 uM substrate diluted in the assay buffer. Digital photographs were taken under white light and UV. These observations were compared to those obtained quantitatively using the fluorescence plate reader. The observed detection limits for pronase were used to calculate theoretical detection limits for MMP-2 and MMP-9 (17% and 28% as active as pronase, respectively).
# MMP-9 [4] = experiment: 5-FAM FRET peptide assay with pure recombinant MMP-9; format: biochemical; details: pure MMP-9 activity near the threshold of Ladwig et al.
# Experimental: Peptide: Two vials of Anaspec, Inc.'s FRET peptide XV (1646.1 g/mol; 100 pg each; Sequence: QXL™520-y-Abu-Pro-Gln-Gly-Leu-Dab(5-FAM)-Ala-Lys-NH (SEQ ID NO:3)) were reconstituted with 60.7 pL of dimethyl sulfoxide (DMSO) to create a stock solution with a concentration of 1.0 mM. A 2× (50 pM) working solution was generated by diluting the 1.0 mM stock in MMP Assay Buffer 20-fold. Each reaction will be 20 pL at final volume requiring at least 0.5 pL of 1.0 mM stock, 9.5 pL of MMP assay buffer and 10 pL of sample per reaction.
# Matrix Metalloprotease 9 (aka Gelatinase B): Recombinant active pure MMP-9 from Calbiochem (Cat# PF024; 83 kDa form) in a concentration of 100 ng/mL was used to create 40 pL working solutions at 2× concentration (4× reactions per concentration).
# The protease was ˜30 pL of 10 pg/mL MMP-9 (86 kDa form). The substrate was ˜60 μL of 50 μCM 5-FAM/QXL520 FRET Peptide (Fluorescein based TNO211). So the final protease concentration is ˜3.33 μg/mL with ˜33.3 μM.
# After the plate-based validation, the leftover substrate and protease were used to test the system in a microcentrifuge tube. A signal visible with a handheld cyan led flashlight was present within 10 minutes. The signal was visible under normal lighting conditions, but the signal is enhanced with the lights out or with the tube shielded.
# Target sequence in this assay (P14780 107-707 limits assumed): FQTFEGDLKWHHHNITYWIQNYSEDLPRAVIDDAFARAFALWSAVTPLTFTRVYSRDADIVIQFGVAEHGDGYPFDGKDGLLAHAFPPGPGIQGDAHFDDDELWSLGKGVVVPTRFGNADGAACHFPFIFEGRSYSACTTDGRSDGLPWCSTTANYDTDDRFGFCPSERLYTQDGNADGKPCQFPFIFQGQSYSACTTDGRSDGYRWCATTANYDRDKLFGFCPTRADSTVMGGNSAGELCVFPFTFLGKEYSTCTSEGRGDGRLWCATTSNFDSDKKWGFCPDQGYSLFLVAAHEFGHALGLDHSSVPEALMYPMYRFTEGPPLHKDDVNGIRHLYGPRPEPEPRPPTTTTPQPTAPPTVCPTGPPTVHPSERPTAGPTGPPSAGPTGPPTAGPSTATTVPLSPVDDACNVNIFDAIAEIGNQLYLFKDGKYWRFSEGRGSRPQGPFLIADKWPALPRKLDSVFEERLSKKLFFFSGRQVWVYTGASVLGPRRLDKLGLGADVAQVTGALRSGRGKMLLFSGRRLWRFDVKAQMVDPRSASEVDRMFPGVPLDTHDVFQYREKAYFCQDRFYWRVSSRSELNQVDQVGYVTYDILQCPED
substance,measurement,setting,value
Biotin-aAbu-Pro-Gln-Gly-Leu-Lys(5FAM)-Ala-Lys-NH2 [Peptide #15],cleavage kinetics,pronase,favorable kinetics
DABCYL-GABA-Pro-Gln-Gly-Leu-Glu(EDANS)-Ala-Lys-NH2 ({DABCYL-GABA}-PQGLE(EDANS)AK-NH2) [TNO211],kcatKm,MMP-2,"619,000 M^−1s^−1"
same,kcatKm,MMP-9 [1],"206,000 M^−1s^−1"
same,kcatKm,MMP-3,"40,000 M^−1s^−1"
same,kcatKm,MMP-1,"21,000 M^−1s^−1"
"MMP-9: Matrix Metalloprotease 9, protease assayed for cleavage of substrate TNO211",activity as % of pronase's observed activity,substrate TNO211 [2],28±3% and 28%
same,theoretical detection limit calculated from pronase limit,substrate TNO211 [3],~450 ng
QXL™520-y-Abu-Pro-Gln-Gly-Leu-Dab(5-FAM)-Ala-Lys-NH ({QXL520-GABA}-PQGL[Dab(5-FAM)]AK-NH2) [Anaspec XV],time to generate a signal,MMP-9 [4],≤ 10 min
collagenase,activity as % of pronase's observed activity,substrate TNO211 [2],2±1%

# Reference: patent US20080176263A1, “Materials and Methods for Efficient and Accurate Detection of Analytes” (University of Florida Research Foundation, Inc., priority 2006, published 2008)
